In article PMC5766233, “Ternary copper(II) complex: NCI60 screening, toxicity studies, and evaluation of efficacy in xenograft models of nasopharyngeal carcinoma” (PLoS ONE, 2018):

How the values were obtained:
[1] = test system: CYP isoforms 1A2, 2C9, 2C19, 2D6, 2B6, 2C8 and 3A4; experiment: CYP450 inhibition assay, summary over all tested isoforms; assay type: in vitro ADME, human; conditions: pooled probe substrates; read-out: IC50 values against all tested isoforms
Method: In the CYP inhibition assay, human liver microsomes were incubated with the Cu(II) complex or reference standard. The inhibitory effects of these compounds were investigated against the major CYP isoforms namely 1A2, 2C9, 2C19, 2D6, 2B6, 2C8 and 3A4 with their respective isoform probe substrates in one reaction mixture (pooled probe substrate format using LC-MS/MS).
Pooled human liver microsomes (Sekisui Xeno Tech, LLC., Kansas City, KS, USA) were incubated with different concentrations of Cu(II) complex or reference standards in buffer containing 0.1% DMSO for 10 min at 37°C and the residual enzyme activity was measured using pooled probe substrates method by pooled LC-MS/MS. Briefly, incubation mixtures were prepared in a total volume of 200 μL with final component concentrations as follows: 0.1 M potassium phosphate buffer (pH 7.4), 1.5 mM NADPH, and 0.25 mg/ml HLM. […] After 20 min of incubation, the reactions were terminated by addition of 200 μL ice-cold acetonitrile (Rankem, Avantor Performance Materials India Limited, Andhra Pradesh, India) containing telmisartan and carbamazepine as internal standards (all probe substrates and standards were from Sigma Aldrich). […] The percent inhibition was calculated using the following equation: %Inhibition=100‑[(activityintestwells/activityinbasalcontrolwells)×100]

[2] = Hematotoxicity evaluation (blood, spleen, bone marrow) in xenograft bearing mice; assay type: in vivo, NOD scid gamma female mice; conditions: for Band neutrophil / Basophils / Eosinophils / Hemoglobin / Lymphocytes / MCHC / MCV / Monocytes / PVC / Plasma protein / RBC / Segmented neutrophil / Thrombocytes / WBC: C666-1-GFP-Luc2 xenograft mice, mean ± SEM
Method: Values of hematological parameters of mice bearing C666-1-GFP-Luc2, an Epstein-barr virus (EBV) positive NPC cell line xenografts which were treated with 4 and 5 mg/kg of the Cu(II) complex were compared with those from control groups (Table 3). […] This indicated absence of anemia.
We further investigated the effects of Cu(II) complex on spleen and bone marrow (from femur) responses.
Blood samples were collected into BD Microtainer Tubes containing dipotassium EDTA (Becton, Dickinson and Company, New Jersey, USA) and submitted to the Veterinary Laboratory Services Unit, Faculty of Veterinary Medicine, Universiti Putra Malaysia, Serdang, Malaysia, for full blood count (FBC) analysis.
Major organs, bones and excised tumors were preserved in 10% neutral buffered formaldehyde solution (Leica Biosystems, Germany) for 24 to 48 h and subsequently processed into formalin-fixed paraffin-embedded tissue blocks following standard tissue processing protocol using Leica ASP300 S (Leica Biosystems, Nussloch, Germany). Fixed bones (skull, femur and tibia) were decalcified with Surgipath Decalcifier I (Leica Biosystems, Germany) for 4 to 6 h depending on size before tissue processing. After paraffin embedding, tissue blocks were sectioned ([…]) using rotary microtome Microm HM340E (Thermo Scientific, Walldorf, Germany) and stained with hematoxylin and eosin (H&E) dyes using Leica Autostainer XL (Leica Biosystems, Nussloch, Germany) before histopathological examination.
All H&E-stained tissue section slides were examined under Nikon Eclipse Ni microscope (Nikon Instruments Inc., New York, USA) and microscopic images were taken using 20x and 40x objectives. For H&E tumor section slides, the percentage of tumor necrosis was determined qualitatively using microscope by the histopathologist in order to estimate the percentage of necrotic area induced by the Cu(II) complex in the tumors. For determination of femoral bone marrow suppression, low power (10x magnification) objective was used to scan the slides while 100x magnification to assess the degree of cellularity and amount of fat present.

[3] = test system: rat primary hepatocytes; experiment: Cytotoxicity in rat primary hepatocytes (resazurin); conditions: 72 h
[4] = Subacute toxicity, daily for 14 days; assay type: in vivo, NOD scid gamma female mice; conditions: 4 and 6 mg/kg ip daily for 14 days
Method: For subacute toxicity study, three groups of three NSG female mice each were used. Using the formula from NCI, the low dose and high dose were calculated from the MTD value (17.5 mg/kg estimated above) and these were 4 and 6 mg/kg respectively. Mice in the first two groups were administered intraperitoneally with Cu(II) complex at doses of 4 and 6 mg/kg daily respectively for 14 days, while those in the control group received an equal volume of normal saline. […] No mortality was observed during the course of the study. All mice remained healthy with no obvious differences being noted in the general behavior, physical activities or clinical conditions with respect to the control group. The accumulative intraperitoneal doses administered in these groups were 56.0 and 84.0 mg/kg of the Cu(II) complex, respectively.
Mice were divided into three groups of 3 mice each. The Cu(II) complex was administered intraperitoneally at the doses of 4 and 6 mg/kg daily for 14 days, while the control group received an equal volume of normal saline. […] Signs of toxicity, mortality, body weight, food consumption and water intake were monitored and recorded daily. Adverse effects such as rapid or consistent body weight loss reaching 20%, blood stained discharges, labored breathing, paralysis, anemia, and other signs and symptoms mentioned in the acute toxicity study, was used as criteria for termination. At the end of the experiment, the mice were sacrificed and the major organs including the heart, lung, liver, kidney and spleen were examined for gross and histopathological changes.

## CC(C)(N)C(=O)[O-].O.O=[N+]([O-])[O-].[Cu+2].c1cnc2c(c1)ccc1cccnc12 [Cu(II) complex, [Cu(phen)(C-dmg)(H2O)]NO3]
[1]
  IC50: 5 to 10 µM
[2]; 4 mg/kg
  Band neutrophil: 0.1 ± 0.0 x10^9/L
  Basophils: 0.0 ± 0.0 x10^9/L
  Eosinophils: 0.0 ± 0.0 x10^9/L
  Hemoglobin: 126.8 ± 10.0 g/L
  Lymphocytes: 0.2 ± 0.0 x10^9/L
  MCHC: 308.5 ± 4.9 g/L
  MCV: 52.9 ± 1.2 fL
  Monocytes: 0.2 ± 0.1 x10^9/L
  PVC: 0.4 ± 0.0 L/L
  Plasma protein: 59.5 ± 2.2 g/L
  RBC: 7.8 ± 0.7 x10^12/L
  Segmented neutrophil: 2.0 ± 0.4 x10^9/L
  Thrombocytes: 1659.0 ± 120.4 x10^9/L
  WBC: 2.5 ± 0.5 x10^9/L
[2]; 5 mg/kg
  Band neutrophil: 0.1 ± 0.0 x10^9/L
  Basophils: 0.0 ± 0.0 x10^9/L
  Eosinophils: 0.0 ± 0.0 x10^9/L
  Hemoglobin: 133.7 ± 4.4 g/L
  Lymphocytes: 0.1 ± 0.0 x10^9/L
  MCHC: 308.3 ± 5.0 g/L
  MCV: 56.2 ± 1.8 fL
  Monocytes: 0.2 ± 0.0 x10^9/L
  PVC: 0.4 ± 0.0 L/L
  Plasma protein: 55.7 ± 2.5 g/L
  RBC: 7.8 ± 0.4 x10^12/L
  Segmented neutrophil: 2.5 ± 0.2 ^* x10^9/L
  Thrombocytes: 1288.2 ± 155.8 x10^9/L
  WBC: 2.9 ± 0.3 ^* x10^9/L
[2]; C666-1-GFP-Luc2 bearing mice, 5 and 6 mg/kg, vs control groups
  spleen weight: significantly lower weight
[2]; HK1 bearing mice, 4, 6 and 8 mg/kg
  spleen weight: did not show weight loss
[2]; all treated groups
  bone marrow suppression (femur): no evidence of bone marrow suppression
[3]
  concentrations at which cytotoxicity is exhibited: over 3 μM
[3]; read-out: IC50 (cytotoxic concentration that kills 50% of the cells), resazurin assay
  IC50: 4.7 µM
[4]
  Histopathological examination, all organs: no significant morphological changes
  body weight: no significant reduction of body weight
[4]; 14 days further observation
  Mortality: No mortality
[4]; day 28
  weight of vital organs: not significantly affected
[4]; disappeared during the 14-day observation
  site of injections: some inflammation and induration
